The values that follow are results of earlier work, collected in patent publication US20240358791A1, “PEPTIDES AND METHODS OF TREATING DYSTROPHY-RELATED DISORDERS USING THE SAME” (Prince Biotech, LLC, priority 2017, published 2024).

Each structure is given as a SMILES string.

For this data set the following is noted: IV infusion with radiation; xerostomia treatment (Kouvaria et al 2007).

Consider `NCCCNCCSP(=O)(O)O` [Amifostine], for which the side effects entry is reported as “serious side effects including fatal skin reaction”.
